Data published in patent publication US20210205312A1, “TREATMENT OF MEMBRANOUS NEPHROPATHY, IGG4-RELATED DISEASE, AND ANTIPHOSPHOLIPID SYNDROME USING BTK INHIBITOR 2-[(3R)-3-[4-AMINO-3-(2-FLUORO-4-PHENOXY-PHENYL)PYRAZOLO[3,4-d]PYRIMIDIN-1-YL]PIPERIDINE-1-CARBONYL]-4-METHYL-4-[4-(OXETAN-3-YL)PIPERAZIN-1-YL]PENT-2-ENENITRILE” (Principia Biopharma Inc., priority 2020, published 2021).
Like-named read-outs stand apart in the source and are kept apart here.

What was measured:
[1] = tested on: CD20+ B-cells in human whole blood; experiment: B-cell activation: anti-IgM-induced CD69 expression on CD20+ B-cells in human whole blood (flow cytometry); format: cell-based; settings: read-out: IC50 for inhibition of CD69 B-cell expression
Experimental: Compound (I) can inhibit B-cell activation, BCR dependent B-cell proliferation, and de novo antibody production. To determine the functional activity of Compound (I), the ability of the compound to inhibit B-cell activation as assessed by anti-IgM-induced CD69 expression in CD20+ B-cells in human whole blood was determined (FIG. 7). […]. As an additional measure of the effects of Compound (I) on B-cell function, the ability of Compound (I) to inhibit B-cell receptor (BCR)-induced human B-cell proliferation was determined. […]. A randomized multicenter trial comparing low-dose prednisolone versus observation for prevention of recurrences in adult immune thrombocytopenia. Clin Appl Thromb Hemost 24: 867-873.).

[2] = tested on: anti-GBM glomerulonephritis; experiment: Mouse anti-GBM glomerulonephritis model; format: in vivo
Experimental: The mouse anti-GBM glomerulonephritis model involves antibody mediated autoimmunity, and the model is histologically and mechanistically similar to glomerulonephritis in humans. The model also includes kidney deposition of immune complexes (IC), targeting glomerular basement membrane. The efficacy of Compound (I) (also referred to as PRN1008) relative to the corticosteroid dexamethasone (Dex) was tested in a mouse anti-GBM glomerulonephritis model according to the design shown in FIG. 1. Briefly, to induce glomerulonephritis, mice were pre-sensitized with sheep IgG/FCA (Study Day −5). Five days later (Study Day 0), the mice received anti-GBM sheep IgG. Treatment with vehicle, Compound (I), or Dex with various dosage regimes (Compound (I): 10 mg/kg, 20 mg/kg, or 40 mg/kg QD or 20 mg/kg BID; Dex: 1 mg/kg QD; Vehicle: QD or BID) began at Study Day −1, one day prior to injection with anti-GBM sheep IgG. Treatment continued until Study Day 10, for […] treatment in total. Urine protein analysis was conducted on Study Days −6, −4, −1, 1, 3, 6, 8, and 10. Following Study Day 10, mice serum BUN levels were analyzed as a measure of kidney function, and kidney histology was performed.

[3] = tested on: enriched B-cells from healthy volunteers; experiment: Inhibition of B-cell antibody production (IgG and IgM AlphaLISA); settings: for IC50: Homo sapiens, B-cell, 168 h
Experimental: B-cells were enriched from leukocyte concentrate of TrimaAccel® LRS chamber recovered after a plateletpheresis procedure from healthy volunteers (Stanford Blood Center, Palo Alto, Calif.) using the Straight from LRSC CD19 Microbead Kit (Miltenyi Biotech). […] IC50 was calculated in GraphPad Prism with non-linear regression using “log (inhibitor) vs. response—Variable slope (four parameters)” analysis with no constraints.

ADCC = experiment: Antibody-dependent cell-mediated cytotoxicity (ADCC) in combination with anti-CD20 antibodies; format: cell-based
[4] = 10, 20 or 40 mg/kg QD or 20 mg/kg BID, Study Day -1 to 10

For CC(C)(C=C(C#N)C(=O)N1CCC[C@@H](n2nc(-c3ccc(Oc4ccccc4)cc3F)c3c(N)ncnc32)C1)N1CCN(C2COC2)CC1 [Compound (I), 2-[(3R)-3-[4-amino-3-(2-fluoro-4-phenoxy-phenyl)pyrazolo[3,4-d]pyrimidin-1-yl]piperidine-1-carbonyl]-4-methyl-4-[4-(oxetan-3-yl)piperazin-1-yl]pent-2-enenitrile], the IC50 [1] was 126 ± 32 nM, the “inhibition of kidney weight gain (surrogate for kidney inflammation)” value [2, 4] was “dose dependent inhibition” and the “inhibition of severe proteinuria” value [2, 4] was “dose dependent inhibition”. For the same molecule, the “inhibition of serum blood urea nitrogen (BUN) levels” value ([2]; 10, 20 or 40 mg/kg QD or 20 mg/kg BID, Study Day -1 to 10, BUN after Day 10) was “dose dependent inhibition”, the “kidney pathology (histology)” value ([2]; compared with Dex 1 mg/kg QD) was “significantly reduced kidney pathology, superior to a steroid comparator (Dex)” and the “proteinuria during the study” value ([2]; urine protein analysis up to Study Day 10) was “reduced proteinuria”. The “T-dependent and T-independent antibody production (IgG and IgM)” value ([3]; CpG, TNP-LPS or anti-CD40+IL-21 stimulation, 7 days) was “inhibited”, the IC50 ([3]; read-out: IgG antibody production IC50, CpG (TLR-9 agonist) stimulation, T-independent, 7 days) was 50 ± 90 nM and the IC50 ([3]; read-out: IgG antibody production IC50, TNP-LPS stimulation, T-independent, 7 days) was 300 ± 600 nM. The IC50 ([3]; read-out: IgG antibody production IC50, anti-CD40 + IL-21 stimulation (T-cell dependent), 7 days) was 20 ± 20 nM, the IC50 ([3]; read-out: IgM antibody production IC50, CpG (TLR-9 agonist) stimulation, T-independent, 7 days) was 1 ± 1 nM and the IC50 ([3]; read-out: IgM antibody production IC50, TNP-LPS stimulation, T-independent, 7 days) was 200 ± 600 nM. For the same molecule, the IC50 ([3]; read-out: IgM antibody production IC50, anti-CD40 + IL-21 stimulation (T-cell dependent), 7 days) was 800 ± 1000 nM and the “effect on ADCC” value (ADCC) was “did not block”.
